Experimental data published in patent US10444149B2, “Fluorescent compounds as sensing agents” (OHIO NORTHERN UNIVERSITY, priority 2016, dated 2019).
Marks after values point to notes of the source that are not given here.

Experiments:
[1] = Visual detection limit, blue to green fluorescence change; settings: 5 μM compound in 3:1 tetrahydrofuran:methanol; Pb(NO3)2 in deionized water
Description: The detection limit Pb(NO3)2 (i.e., Pb^2+) for Compound 25 in 3:1 tetrahydrofuran:methanol was tested by exposing samples of 5 μM Compound 25 to ever decreasing concentrations of Pb(NO3)2 dissolved in deionized water.
A 40 mM solution of Pb(NO3)2 (i.e., Pb^2+) was prepared in tap water and then diluted with 3:1 tetrahydrofuran:methanol to a lead concentration of 133 μM. The resultant sample was added to solutions of 5 μM sample of Compound 25 in 3:1 tetrahydrofuran:methanol. […] This example illustrates that the lead detection can be performed using tap water, which includes a variety of other ions.

[2] = Visual ion selectivity test, excited at 365 nm; settings: 3:1 tetrahydrofuran:methanol
Description: Compound 25 was dissolved in 3:1 tetrahydrofuran:methanol and then exposed to varying amounts of Zn/SO4 (i.e., Zn^2+), (NH4)2Fe(SO4)2.6H2O (i.e., Fe^2+), Fe2O3 (i.e., Fe^3+), CuSO4 (i.e., Cu^2+), or Pb(NO3)2 (i.e., Pb^2+) each in deionized water. Upon visual inspection when excited at 365 nm, the sample exposed to Pb^2+ turned green while all other samples remained blue.

[3] = Extraction of lead from water with octanol and triethylamine; settings: 3 mM Pb(NO3)2, 1 equivalent triethylamine
Description: A 3 mM Pb(NO3)2 sample was prepared in deionized water and Compound 25 was added to give a green fluorescence. The lead was then extracted from the water using either 1-octanol or 2-octanol each with 1 equivalent (relative to Compound 25) of triethylamine, which turned the octanol portion green. After washing thrice with 1-octanol, 99% of the Pb^2+ had been extracted from the water. After washing twice with 2-octanol, 83% of the Pb^2+ had been extracted from the water.

[4] = Detection of lead in methanol extract of soil
Description: A lead-free soil sample was collected, placed into a Buchner funnel, and soaked with 1 mL of 0.15 M Pb(NO3)2 in water to introduce lead to the soil. As a control sample, the same was performed with the lead-free soil without exposure to Pb^2+. After soaking, the soil samples were washed with 50 mL of methanol. A sample from each filtrate was diluted in 3:1 tetrahydrofuran:methanol and exposed to Compound 25. […] This example illustrates that the substituted chromones described herein may be useful in detecting ions from soil extracts.

[5] = Peak absorption wavelength, peak emission wavelength and fluorescent quantum yield; assay type: physicochemical; settings: solvent dichloromethane
Description: Table 2 provides a peak absorption wavelength (λabs maximum), peak emission wavelength (λem maximum), a fluorescent quantum yield (ΦF), and a synthesis yield for the various compounds. The synthesis yield is based on the synthetic pathway illustrated in FIG. 1.

[6] = Emission spectrum on exposure to varying amounts of lead nitrate; settings: 5 μM compound; 3:1 or 2:1 tetrahydrofuran:methanol; excitation 370 nm
Description: Compound 20 was dissolved in methanol and then exposed to varying amounts of […] (i.e., Pb^2+). […] Therefore, a kit, method, system, or the like may utilize a specific solvent system for detection of lead or other Ions. Alternatively, and especially where the metal ion concentration is unknown, a kit, method, system, or the like may utilize a series of solvent systems in parallel to determine a concentration of metal ions.
A 5 μM sample of Compound 25 in 3:1 tetrahydrofuran:methanol or 2:1 tetrahydrofuran:methanol was prepared and exposed to varying amounts of Pb(NO3)2 (i.e., Pb^2+) dissolved in deionized water.

Q: Which “speed of the color change” value [1] does the source give for `COC(=O)C(C)(C)C1Oc2ccc(OC)cc2C(=O)/C1=C\NS(=O)(=O)c1ccc(OC)cc1` (stereo not shown) [Compound 25, (Z)methyl-2-(6-methoxy-3-(((4-methoxyphenyl)sulfonamido)methy-lene)-4-oxochroman-2-yl)-2-methylpropanoate] here?
A: almost instantaneous

Q: And the “fluorescence colour of sample exposed to Cu^2+” value [2]?
A: remained blue

Q: What about the “fluorescence colour of sample exposed to Fe^2+” value [2] of the same compound?
A: remained blue

Q: And the “fluorescence colour of sample exposed to Fe^3+” value [2]?
A: remained blue

Q: And the “fluorescence colour of sample exposed to Zn^2+” value [2]?
A: remained blue

Q: What about the “selectivity among heavy metal ions” value ([2]; Zn^2+, Fe^2+, Fe^3+, Cu^2+, Pb^2+ compared) of the same compound?
A: selectivity for Pb^2+ ions over other heavy metal ions

Q: And the “fluorescence colour of sample exposed to Pb^2+” value ([2]; excited at 365 nm)?
A: turned green

Q: What about the “Pb^2+ extracted from the water” value ([3]; washing thrice with 1-octanol) of the same compound?
A: 99%

Q: And the “Pb^2+ extracted from the water” value ([3]; washing twice with 2-octanol)?
A: 83%

Q: What about the “color change with soil extract” value ([4]; extract from soil exposed to Pb^2+, diluted in 3:1 tetrahydrofuran:methanol) of the same compound?
A: color change from blue to green

Q: What about the “color change with soil extract” value ([4]; extract from soil not exposed to Pb^2+, same dilution) of the same compound?
A: no color change

Q: And the ΦF [5]?
A: 69* %

Q: And the λabs maximum [5]?
A: 392 nm

Q: And the λem maximum [5]?
A: 527 nm

Q: What about the “change of peak emission in the presence of Pb^2+” value [6] of the same compound?
A: red-shift and intensity decrease

Q: And the “visual change of fluorescence colour” value [6]?
A: blue to green
